Tests used:
Assay in all cases: relative viability (nuclei count vs DMSO), 5 days (fraction); higher = more cells survive
LC-2-ad = system: LC-2-ad
In short: (§1)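 A single step with final 0.05% Triton X-100, 1% formaldehyde and 1 ug/ml Hoechst fixed the cells and stained nuclei 5 days after treatment. Lung cancer cell lines in 1536-well plates had been treated by pin tool the day after seeding with one drug alone or a fixed anchor-drug dose plus five library-drug doses (not always all listed) in √10 steps, and nuclei were counted on 4× images. Relative viability is the ratio of nuclei in treated wells to nuclei in vehicle wells, taken as the median of duplicate plates.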

HCC-827 = system: HCC-827
In short: as §1

NCI-H1755 = system: NCI-H1755
In short: as §1

NCI-H596 = system: NCI-H596
In short: as §1

201T = system: 201T
In short: as §1

LU99A = system: LU99A
In short: as §1

RERF-LC-KJ = system: RERF-LC-KJ
In short: as §1

HCC-15 = system: HCC-15
In short: as §1

EKVX = system: EKVX
In short: as §1

NCI-H3122 = system: NCI-H3122
In short: as §1

NCI-H1993 = system: NCI-H1993
In short: as §1

NCI-H1975 = system: NCI-H1975
In short: as §1

HCC-366 = system: HCC-366
In short: as §1

COR-L 105 = system: COR-L 105
In short: as §1

HCC-78 = system: HCC-78
In short: as §1

COR-L23 = system: COR-L23
In short: as §1

BEN = system: BEN
In short: as §1

NCI-H1944 = system: NCI-H1944
In short: as §1

NCI-H1734 = system: NCI-H1734
In short: as §1

SK-LU-1 = system: SK-LU-1
In short: as §1

NCI-H1650 = system: NCI-H1650
In short: as §1

LXF-289 = system: LXF-289
In short: as §1

HARA = system: HARA
In short: as §1

Question: Which results are given for `Cc1cnc(-c2cnc(NCCNc3ccc(C#N)cn3)nc2-c2ccc(Cl)cc2Cl)[nH]1` + Nc1ncn([C@H]2C[C@H](O)[C@@H](CO)O2)c(=O)n1 [Decitabine] (partner 2 µM)?
Answer: relative viability (LC-2-ad; first compound 0.08 µM): 0.791; relative viability (LC-2-ad; first compound 0.8 µM): 0.885; relative viability (LC-2-ad; first compound 2.53 µM): 0.776; relative viability (HCC-827; first compound 0.08 µM): 0.328; relative viability (HCC-827; first compound 0.253 µM): 0.299; relative viability (HCC-827; first compound 0.8 µM): 0.326; relative viability (HCC-827; first compound 2.53 µM): 0.287; relative viability (NCI-H1755; first compound 0.08 µM): 0.723; relative viability (NCI-H1755; first compound 0.253 µM): 0.726; relative viability (NCI-H1755; first compound 0.8 µM): 0.771; relative viability (NCI-H1755; first compound 2.53 µM): 0.704; relative viability (NCI-H596; first compound 0.08 µM): 1.08; relative viability (NCI-H596; first compound 0.253 µM): 0.995; relative viability (NCI-H596; first compound 0.8 µM): 1.03; relative viability (NCI-H596; first compound 2.53 µM): 1.07; relative viability (201T; first compound 0.08 µM): 0.817; relative viability (201T; first compound 0.8 µM): 0.828; relative viability (201T; first compound 2.53 µM): 0.849; relative viability (LU99A; first compound 0.08 µM): 0.954; relative viability (LU99A; first compound 0.253 µM): 0.873; relative viability (LU99A; first compound 0.8 µM): 0.938; relative viability (LU99A; first compound 2.53 µM): 0.775; relative viability (RERF-LC-KJ; first compound 0.08 µM): 0.713; relative viability (RERF-LC-KJ; first compound 0.253 µM): 0.702; relative viability (RERF-LC-KJ; first compound 0.8 µM): 0.66; relative viability (RERF-LC-KJ; first compound 2.53 µM): 0.599; relative viability (HCC-15; first compound 0.08 µM): 0.701; relative viability (HCC-15; first compound 0.253 µM): 0.588; relative viability (HCC-15; first compound 0.8 µM): 0.756; relative viability (HCC-15; first compound 2.53 µM): 0.704; relative viability (EKVX; first compound 0.08 µM): 0.386; relative viability (EKVX; first compound 0.253 µM): 0.315; relative viability (EKVX; first compound 0.8 µM): 0.34; relative viability (EKVX; first compound 2.53 µM): 0.351; relative viability (NCI-H3122; first compound 0.08 µM): 0.461; relative viability (NCI-H3122; first compound 0.8 µM): 0.461; relative viability (NCI-H3122; first compound 2.53 µM): 0.386; relative viability (NCI-H1993; first compound 0.08 µM): 0.744; relative viability (NCI-H1993; first compound 0.253 µM): 0.584; relative viability (NCI-H1993; first compound 0.8 µM): 0.628; relative viability (NCI-H1993; first compound 2.53 µM): 0.591; relative viability (NCI-H1975; first compound 0.08 µM): 0.349; relative viability (NCI-H1975; first compound 0.253 µM): 0.361; relative viability (NCI-H1975; first compound 0.8 µM): 0.409; relative viability (NCI-H1975; first compound 2.53 µM): 0.314; relative viability (HCC-366; first compound 0.08 µM): 0.372; relative viability (HCC-366; first compound 0.253 µM): 0.318; relative viability (HCC-366; first compound 0.8 µM): 0.288; relative viability (HCC-366; first compound 2.53 µM): 0.335; relative viability (COR-L 105; first compound 0.08 µM): 0.639; relative viability (COR-L 105; first compound 0.253 µM): 0.619; relative viability (COR-L 105; first compound 0.8 µM): 0.707; relative viability (COR-L 105; first compound 2.53 µM): 0.49; relative viability (HCC-78; first compound 0.08 µM): 0.692; relative viability (HCC-78; first compound 0.253 µM): 0.507; relative viability (HCC-78; first compound 0.8 µM): 0.767; relative viability (HCC-78; first compound 2.53 µM): 0.731; relative viability (COR-L23; first compound 0.08 µM): 0.521; relative viability (COR-L23; first compound 0.253 µM): 0.367; relative viability (COR-L23; first compound 0.8 µM): 0.521; relative viability (COR-L23; first compound 2.53 µM): 0.548; relative viability (BEN; first compound 0.08 µM): 0.768; relative viability (BEN; first compound 0.253 µM): 0.716; relative viability (BEN; first compound 0.8 µM): 0.663; relative viability (BEN; first compound 2.53 µM): 0.8; relative viability (NCI-H1944; first compound 0.08 µM): 0.476; relative viability (NCI-H1944; first compound 0.8 µM): 0.5; relative viability (NCI-H1944; first compound 2.53 µM): 0.402; relative viability (NCI-H1734; first compound 0.08 µM): 0.514; relative viability (NCI-H1734; first compound 0.253 µM): 0.453; relative viability (NCI-H1734; first compound 0.8 µM): 0.544; relative viability (NCI-H1734; first compound 2.53 µM): 0.567; relative viability (SK-LU-1; first compound 0.08 µM): 0.645; relative viability (SK-LU-1; first compound 0.253 µM): 0.478; relative viability (SK-LU-1; first compound 0.8 µM): 0.688; relative viability (SK-LU-1; first compound 2.53 µM): 0.711; relative viability (NCI-H1650; first compound 0.08 µM): 0.478; relative viability (NCI-H1650; first compound 0.253 µM): 0.259; relative viability (NCI-H1650; first compound 0.8 µM): 0.397; relative viability (NCI-H1650; first compound 2.53 µM): 0.443; relative viability (LXF-289; first compound 0.08 µM): 0.374; relative viability (LXF-289; first compound 0.253 µM): 0.364; relative viability (LXF-289; first compound 0.8 µM): 0.392; relative viability (LXF-289; first compound 2.53 µM): 0.398; relative viability (HARA; first compound 0.08 µM): 0.654; relative viability (HARA; first compound 0.253 µM): 0.471; relative viability (HARA; first compound 0.8 µM): 0.553; relative viability (HARA; first compound 2.53 µM): 0.642

Source: the supplement of paper PMC10307832
